Data on one molecule can be found in patent US20250084043A1, “FORMULATION OF METAXALONE” (iCeutica Inc., priority 2013, published 2025).

Where two headings read alike, the source gives them in different places.

The nature of series [1]: Particle size distribution, Malvern Mastersizer 3000 laser particle size analyzer. The conditions noted are these: aqueous dispersing medium. The class given is physicochemical. How it is done:
Submicron sized metaxalone drug particles were prepared by dry milling metaxalone drug substance (40%) together with lactose monohydrate and sodium lauryl sulfate in an attritor mill containing stainless steel grinding media. The total batch size was approximately 1 kg. Milled powder was discharged out the bottom of the mill and collected for analysis and further processing. […] Table 1, below, includes size data for the milled and unmilled metaxalone.

The conditions of series [2]: cited from earlier work.

Regarding `Cc1cc(C)cc(OCC2CNC(=O)O2)c1` (stereo not shown) [Metaxalone], in series [1], the “D[4, 3]” value is 47.3 μm. The molecule further yielded a Dv10 in series [1] of 16.0 μm. Moreover, the Dv50 in series [1] worked out at 43.3 μm. Besides, in series [1], the Dv90 turned out to be 81.8 μm. Moreover, the “Specific Surface Area” value in series [1] worked out at 199.7 m^2/kg. The solubility result in series [2] (96% ethanol) is on record as “soluble”; in series [2] (chloroform) it was “freely soluble”; in series [2] (ether) it was “practically insoluble”; in series [2] (methanol), “soluble”; in series [2] (water) it was “practically insoluble”.
